Data published in ChEMBL document CHEMBL4732045, “Amide Bond Bioisosteres: Strategies, Synthesis, and Successes” (J Med Chem, 2020).
Blank lines part the entries; values can stand above or below the compound they belong to.

What was measured:
[1] = target: D(2) dopamine receptor (Bos taurus) (UniProt P20288); assay: Modulation of [3H]Spiroperidol/N-Propylnorapomorphine binding to dopamine D2 receptor in bovine striatal membranes incubated for 1 hr by Cheng-Prusoff analysis; type: cell membranes; details: Striatum, Membrane, filed as modulator
Sequence of D(2) dopamine receptor (Bos taurus) (P20288 whole entry): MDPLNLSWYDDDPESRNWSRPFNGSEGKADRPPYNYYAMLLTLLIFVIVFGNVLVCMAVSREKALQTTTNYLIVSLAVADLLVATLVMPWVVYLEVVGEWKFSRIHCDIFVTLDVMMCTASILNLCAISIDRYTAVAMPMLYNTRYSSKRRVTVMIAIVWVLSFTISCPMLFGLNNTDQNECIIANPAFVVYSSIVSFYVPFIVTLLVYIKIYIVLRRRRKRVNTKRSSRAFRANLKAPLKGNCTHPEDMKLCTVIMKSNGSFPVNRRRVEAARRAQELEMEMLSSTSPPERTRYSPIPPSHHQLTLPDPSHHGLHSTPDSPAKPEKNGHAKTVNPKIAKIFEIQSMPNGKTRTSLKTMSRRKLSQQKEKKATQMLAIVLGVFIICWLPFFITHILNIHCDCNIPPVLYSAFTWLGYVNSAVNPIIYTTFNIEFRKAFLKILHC

[2] = target: D(2) dopamine receptor (Bos taurus) (UniProt P20288); assay: Modulation of [3H]Spiroperidol/N-Propylnorapomorphine binding to dopamine D2 receptor in bovine striatal membranes incubated for 1 hr in presence of Gpp(NH)p by Cheng-Prusoff analysis; type: cell membranes; details: Striatum, Membrane, filed as modulator
[3] = target: Delta-type opioid receptor (Mus musculus, UniProt P32300); assay: Inhibition of [3H]-Deltorphin 2 binding to mouse delta opioid receptor expressed in rat GH3 cell membranes by Cheng-Prusoff analysis; design: species or system Cell membrane
Sequence of Delta-type opioid receptor (P32300 whole entry): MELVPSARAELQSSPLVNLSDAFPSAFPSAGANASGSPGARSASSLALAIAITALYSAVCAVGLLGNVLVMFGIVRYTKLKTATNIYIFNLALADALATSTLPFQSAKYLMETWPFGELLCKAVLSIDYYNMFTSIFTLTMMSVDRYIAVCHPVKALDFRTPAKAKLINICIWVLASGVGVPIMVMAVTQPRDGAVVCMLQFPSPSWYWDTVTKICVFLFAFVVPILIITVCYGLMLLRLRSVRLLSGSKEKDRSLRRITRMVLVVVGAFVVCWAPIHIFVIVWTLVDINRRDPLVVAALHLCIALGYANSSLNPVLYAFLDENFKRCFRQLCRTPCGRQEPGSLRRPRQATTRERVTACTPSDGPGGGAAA

[4] = Inhibition of HIV2 protease; design: species or system Human immunodeficiency virus 2
[5] = test system: Human immunodeficiency virus 1; assay: Antiviral activity against HIV1 3b isolate infected in human MT4 cells assessed as blockade of viral spread pretreated for 24 hrs followed by viral infection and subsequently treated with compound every 2 to 3 days post infection by ELISA; type: functional; details: Human immunodeficiency virus 1, 3b isolate, read-out: CIC95
[6] = target: T1, Human immunodeficiency virus type 1 protease (Human immunodeficiency virus 1, UniProt Q72874); assay: Inhibition of HIV1 protease
[7] = target: T1, Human immunodeficiency virus type 1 protease; assay: Inhibition of HIV-1 protease
MDA-MB-231 = assay: Antiproliferative activity against human MDA-MB-231 cells; type: functional, cell-based
CAKI-2 = assay: Cytotoxicity against human Caki-2 cells incubated for 96 hrs by MTT assay; type: functional, cell-based; details: CAKI-2, 96 h
HT-29 = assay: Cytotoxicity against human HT-29 cells incubated for 96 hrs by MTT assay; type: functional, cell-based; details: HT-29, 96 h
A549 = assay: Cytotoxicity against human A549 cells incubated for 96 hrs by MTT assay; type: functional, cell-based; details: A549, 96 h
PC-3 [8] = assay: Cytotoxicity against human PC-3 cells incubated for 96 hrs by MTT assay; type: functional, cell-based; details: PC-3, 96 h
HL-60 [9] = assay: Cytotoxicity against human HL-60 cells incubated for 96 hrs by MTT assay; type: functional, cell-based; details: HL-60, 96 h
HeLa [10] = assay: Cytotoxicity against human HeLa cells incubated for 96 hrs by MTT assay; type: functional, cell-based
PC-3 [11] = assay: Cytotoxicity activity against human PC-3 cells incubated for 96 hrs by MTT method; type: functional, cell-based; details: PC-3, 96 h
HL-60 [12] = assay: Cytotoxicity activity against human HL-60 cells incubated for 96 hrs by MTT assay; type: functional, cell-based; details: HL-60, 96 h
HMEC-1 = assay: Growth inhibition of HMEC-1 incubated for 4 days by Coulter counter method; type: cell-based; details: Homo sapiens, HMEC-1, 96 h
[13] = Growth inhibition of BAEC incubated for 3 days by Coulter counter method; details: Bos taurus, 72 h
HeLa [14] = assay: Antiproliferative activity against human HeLa cells incubated for 4 days by Coulter counter method; type: functional, cell-based; details: 96 h
CCRF-CEM = assay: Antiproliferative activity against human CEM cells incubated for 96 hrs by Coulter counter method; type: functional, cell-based
L1210 = assay: Antiproliferative activity against mouse L1210 cells incubated for 48 hrs by Coulter counter method; type: functional, cell-based; details: L1210, 48 h
Integrin alpha-4/beta-1 = Integrin alpha-4/beta-1 (Homo sapiens, UniProt P05556+P13612); assay: Displacement of 125I-VCAM-Ig from VLA4 in human Jurkat cells incubated for 30 mins by scintillation counting method; type: cell-based
Sequence of Integrin alpha-4/beta-1 (P05556 whole entry): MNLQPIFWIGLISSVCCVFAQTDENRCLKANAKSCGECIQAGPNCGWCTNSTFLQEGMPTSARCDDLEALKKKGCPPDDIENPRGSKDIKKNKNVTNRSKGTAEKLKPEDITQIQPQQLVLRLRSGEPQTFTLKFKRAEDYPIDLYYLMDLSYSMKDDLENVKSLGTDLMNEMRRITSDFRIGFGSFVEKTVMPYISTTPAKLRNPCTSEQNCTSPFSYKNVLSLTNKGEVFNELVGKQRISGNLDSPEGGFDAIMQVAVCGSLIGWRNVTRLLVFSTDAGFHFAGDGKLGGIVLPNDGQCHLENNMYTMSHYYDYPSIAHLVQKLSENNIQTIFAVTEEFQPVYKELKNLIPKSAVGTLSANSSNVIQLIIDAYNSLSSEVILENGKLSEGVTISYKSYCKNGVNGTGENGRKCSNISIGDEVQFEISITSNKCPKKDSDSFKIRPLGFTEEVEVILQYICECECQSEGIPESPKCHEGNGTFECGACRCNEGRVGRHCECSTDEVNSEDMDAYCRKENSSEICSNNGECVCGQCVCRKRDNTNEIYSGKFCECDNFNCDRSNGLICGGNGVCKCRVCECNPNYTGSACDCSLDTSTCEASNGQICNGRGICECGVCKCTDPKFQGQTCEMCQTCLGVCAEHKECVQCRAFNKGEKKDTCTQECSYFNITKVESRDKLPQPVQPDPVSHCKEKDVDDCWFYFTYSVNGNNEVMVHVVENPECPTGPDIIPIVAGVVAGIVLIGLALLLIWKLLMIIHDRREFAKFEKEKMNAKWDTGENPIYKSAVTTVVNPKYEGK
Sequence of Integrin alpha-4/beta-1 (P13612 whole entry): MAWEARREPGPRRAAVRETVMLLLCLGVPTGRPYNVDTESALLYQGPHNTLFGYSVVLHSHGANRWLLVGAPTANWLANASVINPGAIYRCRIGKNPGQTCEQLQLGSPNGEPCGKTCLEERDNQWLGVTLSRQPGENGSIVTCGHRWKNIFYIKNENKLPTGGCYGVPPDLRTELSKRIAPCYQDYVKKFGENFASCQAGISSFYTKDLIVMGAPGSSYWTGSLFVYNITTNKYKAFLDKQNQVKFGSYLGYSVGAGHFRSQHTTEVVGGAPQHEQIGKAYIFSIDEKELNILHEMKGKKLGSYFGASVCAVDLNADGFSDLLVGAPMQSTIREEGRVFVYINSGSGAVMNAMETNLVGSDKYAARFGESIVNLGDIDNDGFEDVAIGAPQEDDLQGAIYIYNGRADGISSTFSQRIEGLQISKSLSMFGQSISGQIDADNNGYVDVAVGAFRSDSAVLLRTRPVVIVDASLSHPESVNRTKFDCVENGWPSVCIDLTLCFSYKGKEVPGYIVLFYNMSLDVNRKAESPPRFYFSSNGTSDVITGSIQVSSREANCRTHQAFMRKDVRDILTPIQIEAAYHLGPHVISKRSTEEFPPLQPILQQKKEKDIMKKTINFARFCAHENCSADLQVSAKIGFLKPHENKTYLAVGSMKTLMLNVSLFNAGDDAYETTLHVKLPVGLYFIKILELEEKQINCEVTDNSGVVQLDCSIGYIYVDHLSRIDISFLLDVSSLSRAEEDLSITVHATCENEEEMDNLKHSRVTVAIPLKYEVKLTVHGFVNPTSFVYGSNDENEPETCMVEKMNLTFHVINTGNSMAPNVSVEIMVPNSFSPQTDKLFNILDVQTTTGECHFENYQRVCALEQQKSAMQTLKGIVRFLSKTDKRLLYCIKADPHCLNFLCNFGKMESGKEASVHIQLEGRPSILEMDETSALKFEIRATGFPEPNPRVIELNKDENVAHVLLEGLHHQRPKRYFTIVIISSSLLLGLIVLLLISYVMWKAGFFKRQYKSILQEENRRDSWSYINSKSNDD

[15] = test system: Poly(dA-dT)oligonucleotide; assay: Binding affinity to poly (dA-dT) (unknown origin) by ethidium displacement assay; type: nucleic-acid assay
[16] = test system: Poly(dG-dC)oligonucleotide; assay: Binding affinity to poly (dG-dC) (unknown origin) by ethidium displacement assay; type: nucleic-acid assay
Mus musculus [17] = assay: Immunosuppressive activity in B6D2F1 mouse model of graft-versus-host disease assessed as mean survival days at 3 mg/kg, ip administered for day 1 to day 10 (day 6 omitted) and measured at day 60; type: functional; details: time 60 day
Mus musculus [18] = assay: Immunosuppressive activity in B6D2F1 mouse model of graft-versus-host disease assessed as mean survival days at 1 mg/kg, ip administered for day 1 to day 10 (day 6 omitted) and measured at day 60; type: functional; details: time 60 day
Rattus norvegicus = assay: Immunosuppressive activity in Lewis rat model of Heart Allotransplantation assessed as mean survival days at 6 mg/kg, ip administered for 10 days by Manntel-Haenszel test; type: functional; details: time 10 day

Structure (SMILES): CC(C)C[C@H](NC(=O)[C@H](Cc1ccccc1)NC(=S)CNC(=O)CNC(=O)[C@@H](N)Cc1ccc(O)cc1)C(=O)O
Ki [3]: 0.047 µM

Structure (SMILES): O=C(N[C@@H](Cc1ccccc1)[C@@H](O)C[C@@H](Cc1ccccc1)C(=O)N[C@H]1c2ccccc2C[C@H]1O)O[C@H]1CCOC1
IC95 [5]: 0.003 µM | IC50 [6]: < 0.03 nM

Structure (SMILES): CC(C)(C)NS(=O)(=O)CC[C@@H]1O[C@@H]1[C@H](Cc1ccccc1)NOC(=O)CCC(=O)NC(=O)c1ccc2ccccc2n1
IC50 [7]: 0.03 µM

Structure (SMILES): O=S(=O)(NCc1ccc2c(c1)OCO2)c1ccccc1
IC50 (MDA-MB-231): 14.2 µM

Structure (SMILES): CCCCCCCCCCCCNC(=O)N[C@@H](CO)[C@H](O)c1ccc([N+](=O)[O-])cc1
IC50 (CAKI-2): 80 µM | IC50 (HT-29): 55 µM | IC50 (A549): 60 µM | IC50 (PC-3 [8]): 36 µM | IC50 (HL-60 [9]): 30 µM

Structure (SMILES): CCCCCCCCCCCCCC(=O)N[C@@H](CO)[C@H](O)c1ccc([N+](=O)[O-])cc1
IC50 (CAKI-2): 107 µM | IC50 (HT-29): 96 µM | IC50 (A549): 64 µM | IC50 (PC-3 [8]): 83 µM | IC50 (HL-60 [9]): 28 µM | IC50 (HeLa [10]): 78 µM | IC50 (PC-3 [11]): 123 µM | IC50 (HL-60 [12]): 48 µM

Structure (SMILES): CS(=O)(=O)c1ccc(C(=O)Nc2ccc(Cl)c(-c3ccccn3)c2)c(Cl)c1 [VISMODEGIB]
IC50 (HMEC-1): 41 µM | IC50 [13]: 50 µM | IC50 (HeLa [14]): 64 µM | IC50 (CCRF-CEM): 58 µM | IC50 (L1210): 49 µM

Structure (SMILES): CC(C)(C)NS(=O)(=O)CC[C@@H]1O[C@@H]1[C@H](Cc1ccccc1)NC(=O)[C@@H](NC(=O)OCc1ccccc1)C(C)(C)S(C)(=O)=O
IC50 [7]: 0.0202 µM

Structure (SMILES): CS(=O)(=O)c1ccc(-c2cn(-c3ccc(Cl)c(-c4ccccn4)c3)nn2)c(Cl)c1
IC50 (HMEC-1): 9.6 µM | IC50 [13]: 40 µM | IC50 (HeLa [14]): > 100 µM | IC50 (CCRF-CEM): 50 µM | IC50 (L1210): 82 µM

Structure (SMILES): COc1cccc(OC)c1-c1ccc(C[C@H](N=C(N)[C@@H]2CCN2S(=O)(=O)c2ccccc2)C(=O)O)cc1
IC50 (Integrin alpha-4/beta-1): 0.0001 µM

Structure (SMILES): Cn1cc(NC(=O)c2cc(NC(=O)c3cc(NC=O)cn3C)cn2C)cc1C(=O)NCCC(=N)N
Kapp [15]: 345 10^5/M | Kapp [16]: 1.3 10^5/M

Structure (SMILES): CCN(C(C)C)S(=O)(=O)CC[C@@H]1O[C@@H]1[C@H](Cc1ccccc1)NC(=O)[C@H](CC(C)(C)S(C)(=O)=O)NC(=O)c1ccc2ccccc2n1
IC50 [7]: 0.0066 µM

Structure (SMILES): CC(C)C(NC(=O)C[C@@H]1O[C@@H]1[C@H](Cc1ccccc1)NC(=O)[C@H](CC(N)=O)NC(=O)c1ccc2ccccc2n1)C(C)C
IC50 [7]: 0.02 µM

Structure (SMILES): N=C(N)NCCCCCCNC(=O)COC(=O)NCCCCNCCCN
Survival (Mus musculus [17]): 58 days | Survival (Mus musculus [18]): 46 days | Survival (Rattus norvegicus): 54 days

Structure (SMILES): O=C(OCc1ccc2c(c1)OCO2)c1ccc(Cl)c(Cl)c1
IC50 (MDA-MB-231): ≥ 200 µM

Further lines, with some results ahead:

KiH [1]: 0.098 nM | KiL [1]: 171 nM | KiH [2]: 0.14 nM | KiL [2]: 183 nM
Structure (SMILES): NC(=O)[C@H]1CS[C@@H]2C[C@@H](N3CC(=O)N4CCC[C@H]4C3=O)C(=O)N12

IC50 [4]: 0.00024 µM
Structure (SMILES): CC(C)(C)NC(=O)[C@@H]1C[C@@H]2CCCC[C@@H]2CN1C[C@@H](O)[C@H](Cc1ccccc1)NC(=O)[C@@H](NC(=O)c1ccc2ccccc2n1)[C@@H]1CCOC1
IC95 [5]: 0.008 µM

IC50 [6]: ≥ 3000 nM
Structure (SMILES): CC(C)(C)NC(=O)[C@@H]1C[C@@H]2CCCC[C@@H]2CN1C[C@@H](O)[C@H](Cc1ccccc1)NC(=O)OC(C)(C)C

IC50 [4]: 0.0005 µM
Structure (SMILES): CC(C)(C)NC(=O)[C@@H]1C[C@@H]2CCCC[C@@H]2CN1C[C@@H](O)[C@H](Cc1ccccc1)NC(=O)[C@H](CC(N)=O)NC(=O)c1ccc2ccccc2n1
IC95 [5]: 0.022 µM

KiH [1]: 0.08 nM | KiL [1]: 120 nM | KiH [2]: 0.12 nM | KiL [2]: 172 nM
Structure (SMILES): CC(C)C[C@@H](C(=O)NCC(N)=O)N1CC(=O)N2CCC[C@H]2C1=O

KiH [1]: 0.09 nM | KiL [1]: 73.2 nM | KiH [2]: 0.13 nM | KiL [2]: 60 nM
Structure (SMILES): CC(C)C[C@H](NC[C@@H]1CCCN1)C(=O)NCC(N)=O

KiH [1]: 0.08 nM | KiL [1]: 69 nM | KiH [2]: 0.19 nM | KiL [2]: 50 nM
Structure (SMILES): NC(=O)CN1CC[C@@H](N2CC(=O)N3CCC[C@H]3C2=O)C1=O
